Test results taken from the NIST ThermoML archive (doi:10.1016/j.jct.2016.03.026).

Experiment: xn = mol fraction of the nth substance listed
Conditions: 263.15 K, Fluid (supercritical or subcritical phases), Vibrating tube method, x1 = 0.97

O=C=O [carbon dioxide] + CO
Conditions | mass density [kg/m3]
10575 kPa | 1020.02
10600 kPa | 1020.11
10625 kPa | 1020.19
10650 kPa | 1020.27
10675 kPa | 1020.44
10700 kPa | 1020.52
10725 kPa | 1020.6
10750 kPa | 1020.68
10775 kPa | 1020.76
10800 kPa | 1020.93
10825 kPa | 1021.01
10850 kPa | 1021.09
10875 kPa | 1021.17
10900 kPa | 1021.25
10925 kPa | 1021.42
10950 kPa | 1021.5
10975 kPa | 1021.58
11000 kPa | 1021.66
11025 kPa | 1021.83
11050 kPa | 1021.91
11075 kPa | 1021.99
11100 kPa | 1022.07
11125 kPa | 1022.15
11150 kPa | 1022.29
11175 kPa | 1022.4
11200 kPa | 1022.48
11225 kPa | 1022.56
11250 kPa | 1022.64
11275 kPa | 1022.8
11300 kPa | 1022.89
11325 kPa | 1022.97
11350 kPa | 1023.05
11375 kPa | 1023.13
11400 kPa | 1023.29
11425 kPa | 1023.38
11450 kPa | 1023.46
11475 kPa | 1023.54
11500 kPa | 1023.62
11525 kPa | 1023.75
11550 kPa | 1023.86
11575 kPa | 1023.95
11600 kPa | 1024.03
11625 kPa | 1024.11
11650 kPa | 1024.21
11675 kPa | 1024.35
11700 kPa | 1024.44
11725 kPa | 1024.52
11750 kPa | 1024.6
11775 kPa | 1024.74
11800 kPa | 1024.84
11825 kPa | 1024.93
11850 kPa | 1025.01
11875 kPa | 1025.09
11900 kPa | 1025.19
11925 kPa | 1025.29
11950 kPa | 1025.41
11975 kPa | 1025.5
12000 kPa | 1025.58
12025 kPa | 1025.66
12050 kPa | 1025.75
12075 kPa | 1025.9
12100 kPa | 1025.98
12125 kPa | 1026.07
12150 kPa | 1026.15
12175 kPa | 1026.31
12200 kPa | 1026.39
12225 kPa | 1026.47
12250 kPa | 1026.56
12275 kPa | 1026.64
12300 kPa | 1026.72
12325 kPa | 1026.88
12350 kPa | 1026.96
12375 kPa | 1027.05
12400 kPa | 1027.13
12425 kPa | 1027.21
12450 kPa | 1027.29
12475 kPa | 1027.38
12500 kPa | 1027.53
12525 kPa | 1027.62
12550 kPa | 1027.7
12575 kPa | 1027.78
12600 kPa | 1027.86
12625 kPa | 1027.96
12650 kPa | 1028.09
12675 kPa | 1028.19
12700 kPa | 1028.27
12725 kPa | 1028.35
12750 kPa | 1028.43
12775 kPa | 1028.51
12800 kPa | 1028.6
12825 kPa | 1028.76
12850 kPa | 1028.84
12875 kPa | 1028.92
12900 kPa | 1029
12925 kPa | 1029.08
12950 kPa | 1029.2
12975 kPa | 1029.3
13000 kPa | 1029.41
13025 kPa | 1029.49
13050 kPa | 1029.57
13075 kPa | 1029.65
13100 kPa | 1029.73
13125 kPa | 1029.88
13150 kPa | 1029.94
13175 kPa | 1030.06
13200 kPa | 1030.14
13225 kPa | 1030.22
13250 kPa | 1030.31
13275 kPa | 1030.39
13300 kPa | 1030.53
13325 kPa | 1030.63
13350 kPa | 1030.71
13375 kPa | 1030.8
13400 kPa | 1030.88
13425 kPa | 1030.96
13450 kPa | 1031.04
13475 kPa | 1031.14
13500 kPa | 1031.29
13525 kPa | 1031.37
13550 kPa | 1031.45
13575 kPa | 1031.53
13600 kPa | 1031.61
